Where two headings read alike, the source gives them in different places.
What was measured:
SERT^WT = SERT^WT (Homo sapiens, UniProt P31645); type: binding
NET = NET versus SERT; no reference given; cited from earlier work
DAT [1] = molecular target: T1, DAT (Homo sapiens, UniProt Q01959); details: DAT versus SERT; no reference given; cited from earlier work
NCCc1c[nH]c2ccc(O)cc12 = assay: cells, lysate or membranes; details: other: SERT^WT; [3H]5-HT saturation uptake, HEK293 cells
DAT [2] = molecular target: T1, DAT; type: binding; details: ~10 nM [3H]WIN35,428, fixed concentrations of carbamazepine
[3] = SERT, ~2 nM [3H]imipramine, fixed concentrations of carbamazepine

Sequence of SERT^WT (P31645 whole entry): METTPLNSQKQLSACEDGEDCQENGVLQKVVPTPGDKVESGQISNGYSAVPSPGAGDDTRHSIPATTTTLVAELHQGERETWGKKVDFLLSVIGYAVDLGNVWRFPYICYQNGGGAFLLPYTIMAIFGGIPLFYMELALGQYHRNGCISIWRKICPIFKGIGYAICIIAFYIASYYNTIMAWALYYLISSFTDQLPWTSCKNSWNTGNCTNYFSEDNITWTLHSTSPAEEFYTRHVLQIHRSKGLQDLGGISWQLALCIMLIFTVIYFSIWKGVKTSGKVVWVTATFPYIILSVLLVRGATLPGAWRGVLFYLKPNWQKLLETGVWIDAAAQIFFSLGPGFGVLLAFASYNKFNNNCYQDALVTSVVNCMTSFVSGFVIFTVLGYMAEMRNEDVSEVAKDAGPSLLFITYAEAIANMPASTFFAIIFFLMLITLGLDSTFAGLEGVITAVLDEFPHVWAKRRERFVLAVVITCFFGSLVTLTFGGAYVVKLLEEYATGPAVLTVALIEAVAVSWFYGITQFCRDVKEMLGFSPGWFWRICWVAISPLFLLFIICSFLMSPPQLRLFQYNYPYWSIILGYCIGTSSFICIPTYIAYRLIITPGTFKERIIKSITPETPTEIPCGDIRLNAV
T1 sequence (Q01959 whole entry, species assumed): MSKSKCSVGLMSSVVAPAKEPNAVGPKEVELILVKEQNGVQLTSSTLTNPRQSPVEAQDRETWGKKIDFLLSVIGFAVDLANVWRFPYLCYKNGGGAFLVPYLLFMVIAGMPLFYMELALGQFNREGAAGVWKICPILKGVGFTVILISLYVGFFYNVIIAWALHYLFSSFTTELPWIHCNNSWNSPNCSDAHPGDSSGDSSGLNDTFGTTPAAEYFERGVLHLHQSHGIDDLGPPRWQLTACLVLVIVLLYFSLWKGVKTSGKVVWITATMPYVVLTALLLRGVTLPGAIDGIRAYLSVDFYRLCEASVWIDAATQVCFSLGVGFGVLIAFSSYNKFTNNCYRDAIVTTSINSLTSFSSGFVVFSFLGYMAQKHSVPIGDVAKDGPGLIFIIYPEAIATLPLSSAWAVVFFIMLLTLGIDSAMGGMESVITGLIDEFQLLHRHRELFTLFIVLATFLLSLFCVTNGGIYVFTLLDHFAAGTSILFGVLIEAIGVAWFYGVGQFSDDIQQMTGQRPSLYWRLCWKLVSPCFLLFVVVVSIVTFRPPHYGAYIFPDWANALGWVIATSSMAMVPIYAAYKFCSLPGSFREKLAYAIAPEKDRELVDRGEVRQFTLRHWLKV

CN[C@@H](C)Cc1ccc2c(c1)OCO2 [MDMA, s-(+)-3,4-methylenedioxy-methamphetamine]
binding together with carbamazepine (Dixon plot of [3H]imipramine binding) (SERT^WT): mutually exclusive

CN(C)CCCN1c2ccccc2CCc2ccccc21 [imipramine]
affinity lower than for SERT (NET): approximately 10 fold
affinity lower than for SERT (DAT [1]): ~1000 fold

CC(N)Cc1ccc(Cl)cc1 (stereo not shown) [para-chloroamphetamine]
binding together with carbamazepine (Dixon plot of [3H]imipramine binding) (SERT^WT; [3]): mutually exclusive

SERT^WT (Homo sapiens)
Km (NCCc1c[nH]c2ccc(O)cc12): 1.2 ± 0.8 µM

ibogaine
binding together with carbamazepine (Dixon plot of [3H]imipramine binding) (SERT^WT; [3]): intersected
binding together with carbamazepine (Dixon plot of [3H]WIN35,428 binding) (DAT [2]): intersected
